From patent publication US20230212202A1, “TREATMENT OF MGMT DEFICIENT CANCER WITH 2-FLUOROETHYL-SUBSTITUTED NITROSOUREAS AND OTHER COMPOUNDS” (YALE UNIVERSITY, priority 2021, published 2023)

Columns and labels:
LN229 MGMT-/MMR+ cells = assay: IR alkaline comet assay; assay type: cell-based, human
[1] = test system: FANCD2 ubiquitination in LN229 MGMT+/-, MMR+/- cells; assay: Western blot analysis of FANCD2 ubiquitination; assay type: cell-based, human
Procedure: Western Blotting. For phospho-protein analysis experiments, cells were lysed in 1X RIPA buffer (Cell Signaling Technology, #9806) supplemented with 1X Protease Inhibitor Cocktail (Roche) and 1X PhosSTOP Phosphatase Inhibitor Cocktail (Sigma). For all other western blot analyses, cells were lysed in lysis buffer (50 mM HEPES, 250 mM NaCl, 5 mM EDTA, 1% NP-40) supplemented with 1X Protease Inhibitor Cocktail (Roche). The de-ubiquitination inhibitor N-ethylmaleimide (NEM, 4 mM) was added in FANCD2 ubiquitination analysis experiments. Proteins were separated using NuPAGE 4-12% Bis-Tris or 3-8% Tris-Acetate Gels (Invitrogen) and transferred to Immobilon-P PVDF membrane (Millipore) for western blotting. Membranes were blocked with 5% milk in TBS-T for 1 h prior to primary antibody addition overnight at 4° C. […] Where shown, bands were quantified using ImageJ software.

[2] = test system: LN229 MGMT-/MMR+ flank tumors
[3] = test system: DLD1 BRCA2+/- and BRCA2-/- cells; assay: Short-term viability assay with or without O6BG; assay type: cell-based, human
[4] = test system: LN229 MGMT-/MMR+ and MGMT-/MMR- flank tumors; assay: Flank tumor second study: regimens, schedules and routes; assay type: in vivo, mouse; conditions: 5, 15, 25 mg/kg; MWF × 3 weeks, M-F × 1 week; PO, IP
Description: In a second study, mice were randomized and administered either KL-50 (4a) or vehicle (10% cyclodextrin) by oral gavage or intraperitoneal injection on either M-F × 1 or MWF × 3 cycles at 5, 15, or 25 mgs/kg. Caliper measurements were obtained during the dosing period and at least two weeks following treatment. Mice were euthanized if body weight loss exceeded 20% or if tumor volume increased to greater than 2000 mm^3.

[5] = test system: PEO4 (BRCA2+) and PEO1 (BRCA2-/-) cells; assay: Short-term viability assay with or without O6BG; assay type: cell-based, human
[6] = test system: LN229 MGMT-/MMR- flank tumors; assay: Xenograft flank tumor model; assay type: in vivo, mouse
[7] = test system: WT and XPA-deficient MEFs; assay: Short-term cell viability assay in NER isogenic MEFs; assay type: cell-based, mouse; conditions: ±MGMT depletion with O6BG
Description: Short-term Cell Viability Assay.

[8] = test system: LN229 MGMT+/-, MMR+/- cells; assay: Short-term cell viability assay, four isogenic LN229 glioblastoma cell lines; assay type: cell-based, human
[9] = test system: LN229 MGMT-/MMR+ and MGMT-/MSH6- flank tumors; assay: Flank tumor third study: large tumors; assay type: in vivo, mouse; conditions: 25 mg/kg PO MWF × 3 weeks, ~350-400 mm^3 tumors
Procedure: The third study involved MGMT-/MMR+ and MGMT-/MSH6- (shMSH6) LN229 cells. Mice tumors were allowed to grow to a larger average starting volume of ~350 mm^3 before they were randomized and administered either KL-50 (4a; 25 mg/kg MWF × 3 weeks) or vehicle (10% cyclodextrin) by oral gavage. Caliper measurements were obtained during the dosing period and at least two weeks following treatment. Mice were euthanized if body weight loss exceeded 20% or if tumor volume increased to greater than 3000 mm^3.

NC(=O)c1ncn2c(=O)n(CCF)nnc12 [KL-50]
IR-induced comet tail (ICL detection) (LN229 MGMT-/MMR+ cells; 200 µM, 24 h, 10 Gy): reduced the %DNA in the tail to levels similar to those seen for 0.1 µM MMC
comet tailing in the absence of IR (LN229 MGMT-/MMR+ cells; TMZ, KL-50 200 µM, MMC 0.1 or 50 µM): induced tailing
FANCD2 ubiquitination [1]: observed specifically in MGMT- cells
tumor growth ([2]; 5 mg/kg MWF × 3 weeks, P.O.): statistically non-inferior to TMZ (1a)
body weight ([2]; LN229 flank tumor experiments, compared to TMZ or control): no significant changes in body weight
sensitivity of BRCA2-/- cells [3]: BRCA2 loss enhanced the toxicity
therapeutic index (TI), ratio of IC50 values in MGMT+/BRCA2+ cells compared to MGMT-/BRCA2- cells ([3]; DLD1 isogenic model): ~ 600 fold
efficacy and toxicity across regimens [4]: effective and non-toxic
sensitivity of BRCA2-/- cells [5]: BRCA2 loss enhanced the toxicity
therapeutic index (TI) ([5]; PEO1/4 model): 62 fold
tumor growth ([6]; 5 mg/kg MWF × 3 weeks, P.O.): potently suppressed tumor growth
increase in median OS vs TMZ ([6]; Kaplan-Meier): greater than 5 week
median OS ([6]; Kaplan-Meier, 5 mg/kg MWF × 3 weeks): greater than 15 weeks
sensitivity of XPA deficient cells [7]: absence of additional sensitivity
activity in the four LN229 cell lines [8]: mirrored that of 4b
rescue of toxicity by ROS scavenger NAC [8]: did not result in rescue
selectivity for MGMT-deficient cells ([8]; LN229): ~ 25 fold
growth of large tumors [9]: potently suppressed the growth
